Assay results: patent US11298363B2, “Triazolobenzazepines as vasopressin V1a receptor antagonists” (RICHTER GEDEON NYRT., priority 2017, dated 2022)
Structures can show the parent of a compound that is named as a salt.

Assays:
[1] = biological target: T1, human vasopressin V1a receptor (Homo sapiens, UniProt P37288); experiment: Functional assay on human vasopressin V1a receptor expressing cell line (intracellular Ca2+ fluorescence); assay type: cell-based; conditions: for IC50: 1321N1 cells, (Arg8)-vasopressin at EC80, read-out: IC50 (nM) on hV1a cell line
Procedure: Functional Assay to Test Compounds on Human Vasopressin V1a Receptor Expressing Cell Line
The ordinary secondary messenger pathway of the measured GPCR receptor was used, the endogenous Gq-associated system.
Using 30,000 cells/plate, compounds were measured on 96-well plates. The buffer composition of the measurements was the following (expressed in mM): 140 NaCl, 5 KCl, 2 CaCl2), 2 MgCl2, 10 glucose, 10 HEPES (4-(2-hydroxyethyl)-1-piperazine-ethanesulfonic acid), 2 probenecid, pH=7.4. FLIPR Calcium 5 kit (Molecular Devices) was used as fluorescent dye, the medium was not removed prior to filling with the dye and the cells were not washed out either before or after. The incubation was performed at room temperature, the final concentration of DMSO was 1%. The materials to be measured were administered in 15 to 20 minutes pretreatment, at least two parallels of each compound in each concentration was measured.
Fluorescence signal was used to determine the intracellular Ca^2+ level, the reader was FlexStation II96. […] The fluorescence signal was logged in every 1.4 seconds for 1 minute. The reference compounds used were the following: (Arg^8)-vasopressin as agonist at concentration of EC80, determined for each plate, and relcovaptan as antagonist at 1 μM. The % of inhibition at each concentration and the IC50 value of the compounds were determined where a concentration line was also measured.
The total AVP concentration-response curve was recorded on each plate. The effect of compounds measured was expressed by percentage of relative inhibition compared to control response. […] The average IC50 values were calculated from at least three independent measurements in all cases.

[2] = biological target: T1, human vasopressin V1a receptor; experiment: Human vasopressin V1a receptor binding assay; conditions: 1321N1 cell membranes, [3H]vasopressin; read-out: Ki (nM) on hV1a cell line
Procedure: Human Vasopressin V1a Receptor Binding Assay
Cells were suspended in preparative buffer (50 mM Tris, 1 mM EDTA, 0.1 mM PMSF) and homogenized with glass homogenizing potter. To separate the raw membrane fraction two consecutive centrifugation procedures (40,000 g for 20 minutes at 4° C.) were executed, then the membrane was taken into the preparatory buffer during a final washing step, it was divided into aliquots which were stored at −80° C. until the time of measurement.
To determine the final affinity value, the results of at least two independent experiments were taken into account.
Non-specific binding values were determined in the presence of unlabeled 1.2×10^−6 M (Arg^8)-vasopressin. Samples were incubated in a total volume of 0.33 ml for 60 minutes at 27° C. Membrane-bound and free ligands were separated by filtration through a 0.5% polyethyleneimine-impregnated UniFilter® GF/B™. After drying the filter plates, 40 μl Microscint-20 (Packard) scintillation cocktail was added to the samples. Finally, radioactivity was measured using MicroBeta^2 Microplate Counter (Perkin Elmer).
During fitting, the asymptotes are not fixed. The K values (inhibition constant) are given with Cheng-Prusoff equation Ki=IC50/[1+(L/KD)] wherein [L] is the radioligand concentration used in the experiment and [KD] is the affinity of the radioactively labelled ligand for the given receptor. The KD is determined beforehand using the Scatchard curve.

T1 sequence (P37288 whole entry): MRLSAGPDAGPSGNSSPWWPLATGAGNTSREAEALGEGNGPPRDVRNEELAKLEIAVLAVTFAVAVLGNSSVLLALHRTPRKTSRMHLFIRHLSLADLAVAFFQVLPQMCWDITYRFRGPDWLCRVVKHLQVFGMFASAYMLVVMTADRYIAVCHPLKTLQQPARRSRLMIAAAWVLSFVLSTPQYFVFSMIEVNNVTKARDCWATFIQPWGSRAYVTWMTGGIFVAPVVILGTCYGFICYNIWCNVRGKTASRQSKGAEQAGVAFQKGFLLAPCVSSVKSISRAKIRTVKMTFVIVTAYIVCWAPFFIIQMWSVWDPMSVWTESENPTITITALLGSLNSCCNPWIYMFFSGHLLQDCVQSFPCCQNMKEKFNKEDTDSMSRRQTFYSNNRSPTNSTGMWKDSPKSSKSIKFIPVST

SMILES	IC50 [1]	Ki [2]	inhibition at 1 µM ([1]; read-out: % at 1 μM, printed in the column IC50 (nM) on hV1a cell line)
Clc1ccc2c(c1)C[C@H](N1CCOCC1)Cc1nnc([C@H]3CC[C@H](Oc4ccccn4)CC3)n1-2 [Example 122, (5S)-8-chloro-5-(morpholin-4-yl)-1-[trans-4-(pyridin-2-yloxy)cyclohexyl]-5,6-dihydro-4H-[1,2,4]triazolo[4,3-a][1]benzazepine]	14 nM	3 nM	
O=C(N[C@H]1Cc2cc(Cl)ccc2-n2c(nnc2[C@H]2CC[C@H](Oc3ccccn3)CC2)C1)C1CC(F)(F)C1 [Example 210, N-{(5S)-8-chloro-1-[trans-4-(pyridin-2-yloxy)cyclohexyl]-5,6-dihydro-4H-[1,2,4]triazolo[4,3-a][1]benzazepin-5-yl}-3,3-difluorocyclobutanecarboxamide]	292 nM	56 nM	
CC(=O)N[C@H]1Cc2cc(Cl)ccc2-n2c(nnc2[C@H]2CC[C@H](Oc3ccccn3)CC2)C1 [Example 68, (5S)—N-{8-chloro-1[trans-4-(pyridin-2-yloxy)cyclohexyl]-5,6-dihydro-4H-[1,2,4]triazolo[4,3-a][1]benzazepin-5-yl}acetamide]	33 nM	9.4 nM	
CN(Cc1ccc(F)cc1)[C@H]1Cc2cc(Cl)ccc2-n2c(nnc2[C@H]2CC[C@H](Oc3ccccn3)CC2)C1 [Example 97, (5S)-8-chloro-N-(4-fluorobenzyl)-N-methyl-1-[trans-4-(pyridin-2-yloxy)cyclohexyl]-5,6-dihydro-4H-[1,2,4]triazolo[4,3-a][1]benzazepin-5-amine]		122 nM	34%
Clc1ccc2c(c1)CC1(Cc3nnc([C@H]4CC[C@H](CN5CCCCC5)CC4)n3-2)OCCO1 [Example 69, 8′-chloro-1′-[trans-4-(piperidin-1-ylmethyl)cyclohexyl]-4′H,6′H-spiro[1,3-dioxolane-2,5′-[1,2,4]triazolo[4,3-a][1]benzazepine]]	139 nM	10 nM	
CC(C)(C)[Si](C)(C)OC1Cc2cc(Cl)ccc2-n2c(nnc2[C@H]2CC[C@H](Oc3ccccn3)CC2)C1 (stereo partly drawn) [Example 52, 5-{[tert-butyl(dimethyl)silyl]oxy}-8-chloro-1-[trans-4-(pyridin-2-yloxy)cyclohexyl]-5,6-dihydro-4H-[1,2,4]triazolo[4,3-a][1]benzazepine]	60 nM	11 nM	
COC1Cc2cc(Cl)ccc2-n2c(nnc2[C@H]2CC[C@@H](N3CCN(C)CC3)CC2)C1 (stereo partly drawn) [Example 183, 8-chloro-5-methoxy-1-[cis-4-(4-methylpiperazin-1-yl)cyclohexyl]-5,6-dihydro-4H-[1,2,4]triazolo[4,3-a][1]benzazepine]	2120 nM	102 nM	
CC(C)(O)C(=O)N[C@H]1Cc2cc(Cl)ccc2-n2c(nnc2[C@H]2CC[C@H](Oc3ccccn3)CC2)C1 [Example 159, N-{(5S)-8-chloro-1-[trans-4-(pyridin-2-yloxy)cyclohexyl]-5,6-dihydro-4H-[1,2,4]triazolo[4,3-a][1]benzazepin-5-yl}-2-hydroxy-2-methylpropanamide]	216 nM	8 nM	
COC1Cc2cc(Cl)ccc2-n2c(nnc2[C@H]2CCN(Cc3ccccn3)C2)C1 (stereo partly drawn) [Example 253, 8-chloro-5-methoxy-1-[(3S)-1-(pyridin-2-ylmethyl)pyrrolidin-3-yl]-5,6-dihydro-4H-[1,2,4]triazolo[4,3-a][1]benzazepine]	66 nM	5 nM	
CC(C)NC1Cc2cc(C#N)ccc2-n2c(nnc2[C@H]2CC[C@H](Oc3ccccn3)CC2)C1 (stereo partly drawn) [Example 82, 5-(propan-2-ylamino)-1-[trans-4-(pyridin-2-yloxy)cyclohexyl]-5,6-dihydro-4H-[1,2,4]triazolo[4,3-a][1]benzazepin-8-carbonitrile trifluoroacetate]	445 nM	29 nM	

The next molecules have a lower Ki [2] than those just listed; values first:

IC50 [1]	Ki [2]	inhibition at 1 µM ([1]; read-out: % at 1 μM, printed in the column IC50 (nM) on hV1a cell line)	SMILES
6.3 nM	2.1 nM		CC(C)(C)C(=O)N[C@@H]1Cc2cc(Cl)ccc2-n2c(nnc2[C@H]2CC[C@H](Oc3ccccn3)CC2)C1 [Example 123, N-{(5R)-8-chloro-1-[trans-4-(pyridin-2-yloxy)cyclohexyl]-5,6-dihydro-4H-[2,4]triazolo[4,3-a][1]benzazepin-5-yl}-2,2-dimethylpropanamide]
1 nM	0.5 nM		OC1Cc2cc(Br)ccc2-n2c(nnc2[C@H]2CC[C@H](Oc3ccccn3)CC2)C1 (stereo partly drawn) [Example 65, 8-bromo-1-[trans-4-(pyridin-2-yloxy)cyclohexyl]-5,6-dihydro-4H-[1,2,4]triazolo[4,3-a][1]benzazepin-5-ol]
14 nM	2 nM		CCC(C)N[C@H]1Cc2cc(Cl)ccc2-n2c(nnc2[C@H]2CC[C@H](Oc3ccccn3)CC2)C1 (stereo partly drawn) [Example 128]
4.3 nM	0.9 nM		Clc1ccc2c(c1)C[C@H](N1CCCC1)Cc1nnc([C@H]3CC[C@H](Oc4ccccn4)CC3)n1-2 [Example 117, (5S)-8-chloro-1-[trans-4-pyridin-2-loxcyclohexyl]-5-(pyrrolidin-1-yl)-5,6-dihydro-4H-[1,2,4]triazolo[4,3-a][1]benzazepine]
27 nM	2.9 nM		Clc1ccc2c(c1)CC1(Cc3nnc([C@@H]4CCN(Cc5cccnc5)C4)n3-2)OCCO1 [Example 250, 8′-chloro-1′-[(3R)-1-(pyridin-3-ylmethyl)pyrrolidin-3-yl]-4′H, 6′H-spiro[1,3-dioxolane-2,5′-[1,2,4]triazolo[4,3-a][1]benzazepine]]
22 nM	0.2 nM		COC1Cc2cc(Cl)ccc2-n2c(nnc2[C@H]2CC[C@H](N3CCCC3=O)CC2)C1 (stereo partly drawn) [Example 219, 1-[trans-4-(8-chloro-5-methoxy-5,6-dihydro-4H-[1,2,4]triazolo[4,3-a][1]benzazepin-1-yl)cyclohexyl]pyrrolidin-2-one]
22 nM	2.3 nM		COC1Cc2cc(Cl)ccc2-n2c(nnc2[C@@H]2CCN(Cc3ccccn3)C2)C1 (stereo partly drawn) [Example 248, 8-chloro-5-methoxy-1-[(3R)-1-(pyridin-2-ylmethyl)pyrrolidin-3-yl]-5,6-dihydro-4H-[1,2,4]triazolo[4,3-a][1]benzazepine]
21 nM	0.8 nM		Clc1ccc2c(c1)C[C@H](NC1CCCC1)Cc1nnc([C@H]3CC[C@H](Oc4ccccn4)CC3)n1-2 [Example 154, (5S)-8-chloro-N-cyclopentyl-1-[trans-4-(pyridin-2-yloxy)cyclohexyl]-5,6-dihydro-4H-[1,2,4]triazolo[4,3-a][1]benzazepin-5-amine]
1.4 nM	0.3 nM		CC(C)OC1Cc2cc(Cl)ccc2-n2c(nnc2[C@H]2CC[C@H](Oc3ccccn3)CC2)C1 (stereo partly drawn) [Example 105, 8-chloro-5-(propan-2-yloxy)-1-[trans-4-(pyridin-2-yloxy)cyclohexyl]-5,6-dihydro-4H-[1,2,4]triazolo[4,3-a][1]benzazepine]
39 nM	2.1 nM		C=CC(=O)N[C@H]1Cc2cc(Cl)ccc2-n2c(nnc2[C@H]2CC[C@H](Oc3ccccn3)CC2)C1 [Example 98, N-{(5S)-8-chloro-1-[trans-4-(pyridin-2-yloxy)cyclohexyl]-5,6-dihydro-4H-[1,2,4]triazolo[4,3-a][1]benzazepin-5-yl}prop-2-enamide]
2.7 nM	0.5 nM		OCCN[C@@H]1Cc2cc(Cl)ccc2-n2c(nnc2[C@H]2CC[C@H](Oc3ccccn3)CC2)C1 [Example 196, 2-({(5R)-8-chloro-1-[trans-4-(pyridin-2-yloxy)cyclohexyl]-5,6-dihydro-4H-[1,2,4]triazolo[4,3-a][1]benzazepin-5-yl}amino)ethanol]
